Test results published in patent US4018801A, “Substituted oxirane compounds” (The Dow Chemical Company, priority 1975, dated 1977).

What was measured:
Assay in all cases: Pre-emergent control of seed germination, soil drench
Type in all cases: in vivo
Pigweeds = conditions: for Percent Pre-Emergent Control of Seed Germination: Table IV, Pigweeds
Description: (§1) Four parts by weight of the compound, 0.08 part of sorbitan trioleate (Span 85), and 0.02 part of a sorbitan monooleate polyoxyethylene derivative (Tween 80) are dipersed in 40 milliliters of acetone to produce a concentrate composition in the form of a water-dispersible liquid containing the predetermined oxirane compound as the sole active agent.
(§2) A portion of each of these concentrate compositions were separately dispersed in portions of water to provide aqueous compositions, containing 0.44 pound of the oxirane compound per 100 gallons of ultimate aqueous mixture.
(§3) The aqueous compositions were then employed for the treatment of seed beds of good agricultural soil which had been prepared and seeded with the seeds of various grass species and broadleaf plants. The grass species included white winter wheat, cultured rice, pigweeds, crabgrass, cheat grass, wild oats, Johnson grass, barnyard grass and yellow foxtail; and the broadleaf plants included corn. In the treating operations, a predetermined quantity of each of the compositions was applied to separate seedbeds as a soil drench at a rate of about 0.43 acre inch of aqueous composition per acre. The quantities were controlled to supply a substantial uniform dosage in a seedbed equivalent to 1.0, 2.0 and 5.0 pounds of the oxirane compound per acre. These dosages correspond, respectively, to a concentration, within the soil depth penetrated of about 1.6, 3.2 and 8.0 parts by weight of the oxirane compound per million parts by weight of soil. Other seedbeds were similarly seeded with the named plant species but were left untreated to serve as checks.
(§4) After about 2 weeks the seedbeds were examined to ascertain what control of the growth of seeds had been obtained.
(§5) were prepared as in Example 32 and similarly employed for the pre-emergencetreatment of various plant species.
(§6) An aqueous composition containing 2-(α,α,α -trifluoro-m-tolyl)-2-(2,2,2-trichloroethyl)oxirane was prepared as described in Example 32. The composition was then employed according to the procedures of Example 32 except that lower concentrations of the oxirane compound were employed in the composition.
(§7) The percent control of the various plant species at the employed dosage rate of the 2-(α,α,α-trifluoro-m-tolyl)- 2-(2,2,2-trichloroethyl) supplied by the composition is set forth in the following Table IV.

Barnyard Grass = conditions: for Percent Pre-Emergent Control of Seed Germination: Table IV, Barnyard Grass
Description: as §1, §2, §3, §4, §5, §6, §7

Yellow Foxtail = conditions: for Percent Pre-Emergent Control of Seed Germination: Table IV, Yellow Foxtail
Description: as §1, §2, §3, §4, §5, §6, §7

Wild Oats = conditions: for Percent Pre-Emergent Control of Seed Germination: Table IV, Wild Oats
Description: as §1, §2, §3, §4, §5, §6, §7

Crabgrass [1] = conditions: 20 pounds per acre
Johnson Grass = conditions: Table IV, Johnson Grass
Description: as §1, §2, §3, §4, §5
(§8) Separate aqueous compositions containing the 2-(m-chlorophenyl)-2-(2,2,2-trichloroethyl)oxirane (Cmpd. A) and 2-(m-bromophenyl)-2-(2,2,2-trichloroethyl)oxirane (Cmpd. C) compounds of the present invention were prepared as in Example 32 for comparative per-emergence herbicide tests against noxious grass species with the known 2 -(p-chlorophenyl)-2-(2,2,2-trichloroethyl)oxirane (Cmpd. B) compound and 2-(p-bromophenyl)-2-(2,2,2-trichloroethyl)oxirane (Cmpd. D). The pre-emergence tests were conducted in Example 32 and the results of such tests are set forth below in Table III.
as §6, §7

Crabgrass [2] = conditions: Table IV, Crabgrass
Description: as §1, §2, §3, §4, §5, §8, §6, §7

White Winter Wheat = conditions: Table IV
Description: as §1, §2, §3, §4, §6, §7

Cultured Rice = conditions: Table IV
Description: as §1, §2, §3, §4, §6, §7

Beans = conditions: Table IV
Description: as §1, §2, §3, §4, §6, §7

Corn = conditions: Table IV
Description: as §1, §2, §3
After about 2 weeks the seedbeds were examined to ascertain what control of the growth of seeds had been obtained. […]
as §6, §7

Soybeans = conditions: Table IV
Cotton = conditions: Table IV
Description: as §1, §2, §3, §4, §8, §6, §7

ClC(Cl)(Cl)CC1(c2cccc(OCc3ccccc3)c2)CO1 (centres unmarked) [Example 16, 2-(m-(benzyloxy)phenyl)-2-(2,2,2-trichloroethyl)oxirane]
pre-emergence control (Pigweeds; pigweed, 20 pounds per acre): substantially complete control | pre-emergence control (Barnyard Grass; barnyard grass, 20 pounds per acre): substantially complete control | pre-emergence control (Yellow Foxtail; yellow foxtail, 20 pounds per acre): substantially complete control | pre-emergence control (Wild Oats; wild oats, 20 pounds per acre): substantially complete control | pre-emergence control (Crabgrass [1]): substantially complete control

FC(F)(F)c1cccc(C2(CC(Cl)(Cl)Cl)CO2)c1 (stereo not drawn) [Example 4, 2-(α,α,α -trifluoro-m-tolyl)-2-(2,2,2-trichloroethyl)oxirane]
Percent Pre-Emergent Control of Seed Germination (Pigweeds; 0.03 pounds): 0% | Percent Pre-Emergent Control of Seed Germination (Pigweeds; 0.07 pounds): 30% | Percent Pre-Emergent Control of Seed Germination (Pigweeds; 0.13 pounds): 50% | Percent Pre-Emergent Control of Seed Germination (Pigweeds; 0.25 pounds): 100% | Percent Pre-Emergent Control of Seed Germination (Pigweeds; 0.5 pounds): 100% | Percent Pre-Emergent Control of Seed Germination (Pigweeds; 1.0 pounds): 100% | Percent Pre-Emergent Control of Seed Germination (Barnyard Grass; 0.03 pounds): 50% | Percent Pre-Emergent Control of Seed Germination (Barnyard Grass; 0.07 pounds): 95% | Percent Pre-Emergent Control of Seed Germination (Barnyard Grass; 0.13 pounds): 95% | Percent Pre-Emergent Control of Seed Germination (Barnyard Grass; 0.25 pounds): 95% | Percent Pre-Emergent Control of Seed Germination (Barnyard Grass; 0.5 pounds): 95% | Percent Pre-Emergent Control of Seed Germination (Barnyard Grass; 1.0 pounds): 95% | Percent Pre-Emergent Control of Seed Germination (Yellow Foxtail; 0.03 pounds): 30% | Percent Pre-Emergent Control of Seed Germination (Yellow Foxtail; 0.07 pounds): 0% | Percent Pre-Emergent Control of Seed Germination (Yellow Foxtail; 0.13 pounds): 95% | Percent Pre-Emergent Control of Seed Germination (Yellow Foxtail; 0.25 pounds): 100% | Percent Pre-Emergent Control of Seed Germination (Yellow Foxtail; 0.5 pounds): 100% | Percent Pre-Emergent Control of Seed Germination (Yellow Foxtail; 1.0 pounds): 100% | Percent Pre-Emergent Control of Seed Germination (Wild Oats; 0.03 pounds): 30% | Percent Pre-Emergent Control of Seed Germination (Wild Oats; 0.07 pounds): 85% | Percent Pre-Emergent Control of Seed Germination (Wild Oats; 0.13 pounds): 95% | Percent Pre-Emergent Control of Seed Germination (Wild Oats; 0.25 pounds): 95% | Percent Pre-Emergent Control of Seed Germination (Wild Oats; 0.5 pounds): 95% | Percent Pre-Emergent Control of Seed Germination (Wild Oats; 1.0 pounds): 95% | Percent Pre-Emergent Control of Seed Germination (Johnson Grass; 0.03 pounds): 0% | Percent Pre-Emergent Control of Seed Germination (Johnson Grass; 0.07 pounds): 80% | Percent Pre-Emergent Control of Seed Germination (Johnson Grass; 0.13 pounds): 100% | Percent Pre-Emergent Control of Seed Germination (Johnson Grass; 0.25 pounds): 100% | Percent Pre-Emergent Control of Seed Germination (Johnson Grass; 0.5 pounds): 100% | Percent Pre-Emergent Control of Seed Germination (Johnson Grass; 1.0 pounds): 100% | Percent Pre-Emergent Control of Seed Germination (Crabgrass [2]; 0.03 pounds): 60% | Percent Pre-Emergent Control of Seed Germination (Crabgrass [2]; 0.07 pounds): 75% | Percent Pre-Emergent Control of Seed Germination (Crabgrass [2]; 0.13 pounds): 100% | Percent Pre-Emergent Control of Seed Germination (Crabgrass [2]; 0.25 pounds): 100% | Percent Pre-Emergent Control of Seed Germination (Crabgrass [2]; 0.5 pounds): 100% | Percent Pre-Emergent Control of Seed Germination (Crabgrass [2]; 1.0 pounds): 100% | Percent Pre-Emergent Control of Seed Germination (White Winter Wheat; 0.03 pounds): 0% | Percent Pre-Emergent Control of Seed Germination (White Winter Wheat; 0.07 pounds): 50% | Percent Pre-Emergent Control of Seed Germination (White Winter Wheat; 0.13 pounds): 100% | Percent Pre-Emergent Control of Seed Germination (White Winter Wheat; 0.25 pounds): 100% | Percent Pre-Emergent Control of Seed Germination (White Winter Wheat; 0.5 pounds): 100% | Percent Pre-Emergent Control of Seed Germination (White Winter Wheat; 1.0 pounds): 100% | Percent Pre-Emergent Control of Seed Germination (Cultured Rice; 0.03 pounds): 0% | Percent Pre-Emergent Control of Seed Germination (Cultured Rice; 0.07 pounds): 30% | Percent Pre-Emergent Control of Seed Germination (Cultured Rice; 0.13 pounds): 100% | Percent Pre-Emergent Control of Seed Germination (Cultured Rice; 0.25 pounds): 100% | Percent Pre-Emergent Control of Seed Germination (Cultured Rice; 0.5 pounds): 100% | Percent Pre-Emergent Control of Seed Germination (Cultured Rice; 1.0 pounds): 100% | Percent Pre-Emergent Control of Seed Germination (Beans; 0.03 pounds): 30% | Percent Pre-Emergent Control of Seed Germination (Beans; 0.07 pounds): 30% | Percent Pre-Emergent Control of Seed Germination (Beans; 0.13 pounds): 30% | Percent Pre-Emergent Control of Seed Germination (Beans; 0.25 pounds): 60% | Percent Pre-Emergent Control of Seed Germination (Beans; 0.5 pounds): 70% | Percent Pre-Emergent Control of Seed Germination (Beans; 1.0 pounds): 95% | Percent Pre-Emergent Control of Seed Germination (Corn; 0.03 pounds): 0% | Percent Pre-Emergent Control of Seed Germination (Corn; 0.07 pounds): 0% | Percent Pre-Emergent Control of Seed Germination (Corn; 0.13 pounds): 0% | Percent Pre-Emergent Control of Seed Germination (Corn; 0.25 pounds): 90% | Percent Pre-Emergent Control of Seed Germination (Corn; 0.5 pounds): 95% | Percent Pre-Emergent Control of Seed Germination (Corn; 1.0 pounds): 95% | Percent Pre-Emergent Control of Seed Germination (Soybeans; 0.03 pounds): 0% | Percent Pre-Emergent Control of Seed Germination (Soybeans; 0.07 pounds): 0% | Percent Pre-Emergent Control of Seed Germination (Soybeans; 0.13 pounds): 100% | Percent Pre-Emergent Control of Seed Germination (Soybeans; 0.25 pounds): 40% | Percent Pre-Emergent Control of Seed Germination (Soybeans; 0.5 pounds): 50% | Percent Pre-Emergent Control of Seed Germination (Soybeans; 1.0 pounds): 60% | Percent Pre-Emergent Control of Seed Germination (Cotton; 0.03 pounds): 0% | Percent Pre-Emergent Control of Seed Germination (Cotton; 0.07 pounds): 0% | Percent Pre-Emergent Control of Seed Germination (Cotton; 0.13 pounds): 0% | Percent Pre-Emergent Control of Seed Germination (Cotton; 0.25 pounds): 0% | Percent Pre-Emergent Control of Seed Germination (Cotton; 0.5 pounds): 30% | Percent Pre-Emergent Control of Seed Germination (Cotton; 1.0 pounds): 20%
